According to EP4818168A1, “FUSED RING COMPOUND, PHARMACEUTICAL COMPOSITION THEREOF AND USE THEREOF” (priority 2023, dated 2025):
Read-outs that look alike come from different tables or passages of the source.

Key:
AURKA = molecular target: T1, AURKA (Homo sapiens, UniProt O14965); format: cell-based
T1 construct: endogenous in cells; host or cells: Jurkat cells
T1 sequence (O14965 1-403): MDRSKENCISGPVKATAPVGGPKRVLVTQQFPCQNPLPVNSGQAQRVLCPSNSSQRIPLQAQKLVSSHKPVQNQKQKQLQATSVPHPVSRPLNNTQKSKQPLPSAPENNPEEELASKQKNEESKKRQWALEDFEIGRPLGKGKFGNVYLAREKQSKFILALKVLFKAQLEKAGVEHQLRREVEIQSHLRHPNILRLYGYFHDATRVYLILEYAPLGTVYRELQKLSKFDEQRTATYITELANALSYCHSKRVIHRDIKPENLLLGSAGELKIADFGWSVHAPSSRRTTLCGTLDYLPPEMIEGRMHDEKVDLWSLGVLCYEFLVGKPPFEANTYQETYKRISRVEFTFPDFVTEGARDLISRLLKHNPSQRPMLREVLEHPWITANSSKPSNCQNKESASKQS
How it was run: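 Jurkat cells seeded at 1×10^6 cells/500 µL and treated with compound; lysates run on SDS-PAGE, blotted to nitrocellulose and probed overnight at 4°C for AURKA. Chemiluminescent or fluorescent band intensity fitted to a curve to give DC50 for protein degradation.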

HCC1806 cells = experiment: CTG assay of compound inhibition on cell viability (HCC1806 cells); format: cell-based; details: Homo sapiens, read-out: IC50 in HCC1806 Cells
Experimental: CellTiter-Glo (CTG) is a rapid cell viability test method based on ATP detection. […] Adenosine triphosphate (ATP) participates in various enzymatic reactions in organisms and is an indicator of living cell metabolism. Its content directly reflects the number of living cells and cell status. During the experiment, equal volume of CTG reagent is added to the cultured cells to measure the luminescence value. The chemiluminescent signal value is proportional to the amount of ATP, thus reflecting the number of viable cells. Therefore, cell viability can be obtained by detecting the ATP content. Compounds that affect cell viability will inhibit cell viability in a concentration-dependent manner, allowing a curve to be fitted to obtain the IC50 value.
The experimental procedure is as follows: • 11. Place the cell suspension in a 15 mL centrifuge tube, centrifuge at 1000 rpm for 5 min at room temperature, discard the supernatant, and collect the cell pellet. • 12. Resuspend the cell pellet with preheated complete cell culture medium (RPMI1640+10%FBS+1%PS), and use a Countess® automated cell counter to detect cell viability and density. The cell viability must be above 90%. • 13. […] Transfer the compound solution to a 96-well plate seeded with cells (final concentration of DMSO 0.1%), and place in a cell incubator at 37°C, 5% CO2 for 6 days. • 15. […] Protect from light during the whole process. Perform optical signal readings using a SpectraMax i3x reader. • 16. Data analysis: Remaining activity (%) = 100% * (1 - ((LumDMSO - Lummedium) - Lumsample) / (LumDMSO - LumPBS/medium)). Use GraphPad Prism 9.0 software to draw an S-shaped dose-survival rate curve and calculate the IC50 value using a nonlinear regression model.

[1] = 100 nM compound, Jurkat cells, 24 h, Table 1
[2] = 1 µM compound, Jurkat cells, 24 h, Table 1
[3] = 144 h, HCC1806 cells, 6 days, CellTiter-Glo

SMILES	Percentage of AURKA Degradation Induced by 100 nM Compound in Jurkat Cells (AURKA)	Percentage of AURKA Degradation Induced by 1 µM Compound in Jurkat Cells (AURKA)	IC50 (HCC1806 cells; HCC1806, 144 h) [nM]	Percentage of AURKA Degradation Induced by 100 nM Compound in Jurkat Cells (AURKA; [1])	Percentage of AURKA Degradation Induced by 1 µM Compound in Jurkat Cells (AURKA; [2])	IC50 (HCC1806 cells; [3]) [nM]
COc1cc(Nc2ncc3c(n2)-c2ccc(Cl)cc2C(c2c(F)cccc2OC)=NC3)ccc1C(=O)N[C@H]1C[C@H](C#Cc2cccc3c2CN(C2CCC(=O)NC2=O)C3=O)C1 (relative stereo) [Compound A7]	++ (key: +: Degradation ≤ 30%; ++: 30% < Degradation ≤ 70%; +++: Degradation > 70%)	++ (key: +: Degradation ≤ 30%; ++: 30% < Degradation ≤ 70%; +++: Degradation > 70%)	1000 to 10000	–	–	–
O=C1CCC(N2C(=O)c3cccc(NCCOCCNC(=O)c4ccc(Nc5ncc6c(n5)-c5ccc(Cl)cc5C(c5c(F)cccc5F)=NC6)cc4)c3C2=O)C(=O)N1 (centres unmarked) [Compound A1]	–	–	–	++ (30% < Degradation ≤ 70%)	++ (30% < Degradation ≤ 70%)	< 1000
COc1cc(Nc2ncc3c(n2)-c2ccc(Cl)cc2C(c2c(F)cccc2OC)=NC3)ccc1C(=O)N(C)CCCCCNc1cccc2c1C(=O)N(C1CCC(=O)NC1=O)C2=O (centres unmarked) [Compound A2]	–	–	–	++ (30% < Degradation ≤ 70%)	++ (30% < Degradation ≤ 70%)	< 1000
COc1cc(Nc2ncc3c(n2)-c2ccc(Cl)cc2C(c2c(F)cccc2OC)=NC3)ccc1C(=O)NC1CN(CCOc2cccc3c2C(=O)N(C2CCC(=O)NC2=O)C3=O)C1 (centres unmarked) [Compound A5]	–	–	–	++ (30% < Degradation ≤ 70%)	++ (30% < Degradation ≤ 70%)	< 1000
COc1cc(Nc2ncc3c(n2)-c2ccc(Cl)cc2C(c2c(F)cccc2OC)=NC3)ccc1C(=O)NCCN1CCN(c2ccc(N3CCC(=O)NC3=O)cc2)CC1 [Compound A8]	–	–	–	+++ (Degradation > 70%)	+++ (Degradation > 70%)	< 1000
O=C1CCN(c2ccc(N3CCN(CCNC(=O)c4ccc(Nc5ncc6c(n5)-c5ccc(Cl)cc5C(c5c(F)cccc5F)=NC6)cc4)CC3)cc2)C(=O)N1 [Compound A10]	–	–	< 1000	++ (30% < Degradation ≤ 70%)	++ (30% < Degradation ≤ 70%)	–
CN(CCN1CCN(c2ccc(N3CCC(=O)NC3=O)cc2)CC1)C(=O)c1ccc(Nc2ncc3c(n2)-c2ccc(Cl)cc2C(c2c(F)cccc2F)=NC3)cc1 [Compound A11]	–	–	< 1000	+++ (Degradation > 70%)	++ (30% < Degradation ≤ 70%)	–
O=C1CCN(c2ccc(N3CCC(CNC(=O)c4ccc(Nc5ncc6c(n5)-c5ccc(Cl)cc5C(c5c(F)cccc5F)=NC6)cc4)CC3)cc2)C(=O)N1 [Compound A12]	–	–	< 1000	+ (Degradation ≤ 30%)	+ (Degradation ≤ 30%)	–
COc1cc(Nc2ncc3c(n2)-c2ccc(Cl)cc2C(c2c(F)cccc2OC)=NC3)ccc1C(=O)NCCN1CCC(c2ccc(N3CCC(=O)NC3=O)cc2)CC1 [Compound A15]	–	–	< 1000	+++ (Degradation > 70%)	+++ (Degradation > 70%)	–
COc1cc(Nc2ncc3c(n2)-c2ccc(Cl)cc2C(c2c(F)cccc2OC)=NC3)ccc1C(=O)NCCN1CCC(c2ccc(N3CCC(=O)NC3=O)cn2)CC1 [Compound A16]	–	–	< 1000	+++ (Degradation > 70%)	++ (30% < Degradation ≤ 70%)	–
COc1cc(Nc2ncc3c(n2)-c2ccc(Cl)cc2C(c2c(F)cccc2OC)=NC3)ccc1C(=O)NCCN1Cc2cc3c(cc2C1)C(=O)N(C1CCC(=O)NC1=O)C3=O (centres unmarked) [Compound A17]	–	–	< 1000	+ (Degradation ≤ 30%)	+ (Degradation ≤ 30%)	–
O=C1CCN(c2ccc(N3CCN(C4CN(C(=O)c5ccc(Nc6ncc7c(n6)-c6ccc(Cl)cc6C(c6c(F)cccc6F)=NC7)cc5)C4)CC3)cc2)C(=O)N1 [Compound A19]	–	–	< 1000	++ (30% < Degradation ≤ 70%)	+ (Degradation ≤ 30%)	–
COc1cc(Nc2ncc3c(n2)-c2ccc(Cl)cc2C(c2c(F)cccc2OC)=NC3)ccc1C(=O)NCCN1CCN(c2cccn3c(N4CCC(=O)NC4=O)cnc23)CC1 [Compound A21]	–	–	< 1000	+++ (Degradation > 70%)	+++ (Degradation > 70%)	–
O=C1CCN(c2cnc3c(N4CCN(CCNC(=O)c5ccc(Nc6ncc7c(n6)-c6ccc(Cl)cc6C(c6c(F)cccc6F)=NC7)cc5)CC4)cccn23)C(=O)N1 [Compound A22]	–	–	< 1000	+++ (Degradation > 70%)	+++ (Degradation > 70%)	–
COc1cc(Nc2ncc3c(n2)-c2ccc(Cl)cc2C(c2c(F)cccc2OC)=NC3)ccc1C(=O)NCCN1CCC(n2cnc(N3CCC(=O)NC3=O)c2)CC1 [Compound A23]	–	–	< 1000	+ (Degradation ≤ 30%)	+ (Degradation ≤ 30%)	–
COc1cc(Nc2ncc3c(n2)-c2ccc(Cl)cc2C(c2c(F)cccc2OC)=NC3)ccc1C(=O)NCCN1CCN(c2ncc(N3CCC(=O)NC3=O)s2)CC1 [Compound A24]	–	–	< 1000	+++ (Degradation > 70%)	++ (30% < Degradation ≤ 70%)	–
O=C1CCN(c2cnc(N3CCN(CCNC(=O)c4ccc(Nc5ncc6c(n5)-c5ccc(Cl)cc5C(c5c(F)cccc5F)=NC6)cc4)CC3)s2)C(=O)N1 [Compound A25]	–	–	< 1000	+++ (Degradation > 70%)	++ (30% < Degradation ≤ 70%)	–
COc1cc(Nc2ncc3c(n2)-c2ccc(Cl)cc2C(c2c(F)cccc2OC)=NC3)ccc1C(=O)NCCC#Cc1ccc(N2CCC(=O)NC2=O)cc1 [Compound A26]	–	–	< 1000	+ (Degradation ≤ 30%)	+ (Degradation ≤ 30%)	–
COc1cc(Nc2ncc3c(n2)-c2ccc(Cl)cc2C(c2c(F)cccc2OC)=NC3)ccc1C(=O)NCC1CCN(Cc2ccc(N3CCC(=O)NC3=O)cc2)CC1 [Compound A27]	–	–	1000 to 10000	+ (Degradation ≤ 30%)	+ (Degradation ≤ 30%)	–
COc1cc(Nc2ncc3c(n2)-c2ccc(Cl)cc2C(c2c(F)cccc2OC)=NC3)ccc1C(=O)NC1CC(C#Cc2cccc(N3CCC(=O)NC3=O)c2)C1 (centres unmarked) [Compound A50]	–	–	< 1000	–	–	–
O=C1CCN(c2cccc(C#CC34CC(NC(=O)c5ccc(Nc6ncc7c(n6)-c6ccc(Cl)cc6C(c6c(F)cccc6F)=NC7)cc5)(C3)C4)c2)C(=O)N1 [Compound A76]	–	–	1000 to 10000	–	–	–
